Some test systems named below: UACC-62 melanoma; M14 melanoma; CCRF-CEM leukemia; SK-MEL-2 melanoma; NCI-H226 lung; KM12 colon; NCI/ADR-RES ovarian; OVCAR-4 ovarian; NCI-H460 lung; NCI-H522 lung.
Holding throughout (assay): inhibition of tumour cell growth, NCI panel, 48 h

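How tested: cells in 96-well plates exposed to compound for 48 hours at five concentrations. GI50 is the concentration that inhibits growth by half. The concentration for full growth arrest is given as TGI.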

Take `Cc1cccc2c1C(=O)[C@@](C)([C@]1(C)Nc3cccc(C)c3C1=O)N2`: the TGI in the test with UACC-62 melanoma, in the test on M14 melanoma, in the test with CCRF-CEM leukemia, with SK-MEL-2 melanoma, in the test on NCI-H226 lung and in the test with KM12 colon was above 100 µM throughout. Besides, the TGI with NCI/ADR-RES ovarian, in the test with OVCAR-4 ovarian, in the test on NCI-H460 lung and in the test with NCI-H522 lung was above 100 µM throughout.
Consider `OC(O)(C(F)(F)F)C(F)(F)F`, for which the TGI in the test with UACC-62 melanoma, in the test with M14 melanoma, with CCRF-CEM leukemia, in the test on SK-MEL-2 melanoma, in the test on NCI-H226 lung and with KM12 colon was above 100 µM in each case. For the same compound, the TGI with NCI/ADR-RES ovarian, with OVCAR-4 ovarian, with NCI-H460 lung and in the test on NCI-H522 lung was above 100 µM in each case.
Regarding `c1ccc(CNc2ncnc3n[nH]nc23)cc1`, the TGI in the test with UACC-62 melanoma, with M14 melanoma, in the test with CCRF-CEM leukemia, in the test with SK-MEL-2 melanoma, with NCI-H226 lung and with KM12 colon was above 100 µM each time. In addition, the TGI with NCI/ADR-RES ovarian, in the test with OVCAR-4 ovarian and in the test with NCI-H522 lung was above 100 µM in each case.
Consider `C=C1C(=O)O[C@H]2C3C(=C(C)CC[C@@H]12)C(=O)[C@@H]1OC31C` (stereo partly drawn), for which the TGI in the test with UACC-62 melanoma turned out to be 5.69 µM; in the test with M14 melanoma, 3.19 µM; with CCRF-CEM leukemia it was 1.31 µM; with SK-MEL-2 melanoma it was 18.3 µM; in the test on NCI-H226 lung it was 20.5 µM; with KM12 colon, 20.2 µM. In addition, the TGI is 10.7 µM in the test on NCI/ADR-RES ovarian, 3.39 µM in the test with OVCAR-4 ovarian, 25.3 µM in the test with NCI-H460 lung and 2.91 µM in the test with NCI-H522 lung.
As for `CN(C)c1ccc(/C=C2\C[C@H]3[C@@H]4CCc5cc(O)ccc5[C@H]4CC[C@]3(C)C2=O)cc1`, the TGI in the test on UACC-62 melanoma was 86.1 µM; in the test on M14 melanoma, above 100 µM; in the test on CCRF-CEM leukemia, above 100 µM; with SK-MEL-2 melanoma it was above 100 µM; in the test on NCI-H226 lung, 67.3 µM; in the test on KM12 colon it was above 100 µM. The TGI in the test on NCI/ADR-RES ovarian, in the test with OVCAR-4 ovarian and in the test on NCI-H460 lung was above 100 µM throughout.
Turning to `CCOC(=O)C[n+]1ccc2c([nH]c3cc(OC)ccc32)c1C`, the TGI with UACC-62 melanoma, with CCRF-CEM leukemia, with SK-MEL-2 melanoma, with NCI-H226 lung, in the test with KM12 colon and in the test on NCI/ADR-RES ovarian was above 100 µM in each case. The TGI in the test with OVCAR-4 ovarian, with NCI-H460 lung and in the test on NCI-H522 lung was above 100 µM throughout.
Take `Oc1ccc2ccccc2c1OCc1nnc(CCCCCCCCc2nnc(COc3c(O)ccc4ccccc34)o2)o1`: the TGI in the test with UACC-62 melanoma, in the test with M14 melanoma, in the test with SK-MEL-2 melanoma, in the test with NCI-H226 lung, in the test on KM12 colon and with NCI/ADR-RES ovarian was above 100 µM throughout. Moreover, the TGI with OVCAR-4 ovarian, with NCI-H460 lung and with NCI-H522 lung was above 100 µM throughout.
For the compound `COC(=O)C(C(=O)OC)C1CC(=O)c2c(Br)sc(Br)c21` (stereo not drawn), the TGI was 29.6 µM in the test on UACC-62 melanoma; 40.8 µM with M14 melanoma; 15.4 µM in the test with CCRF-CEM leukemia; 27.4 µM with SK-MEL-2 melanoma; 53.4 µM with NCI-H226 lung; above 100 µM in the test on KM12 colon. Moreover, the TGI with NCI/ADR-RES ovarian was determined as 37.1 µM; in the test on OVCAR-4 ovarian, 26.3 µM; in the test with NCI-H460 lung, 40.4 µM.
On to `COc1cc(S(=O)(=O)N/N=C/c2cc(Br)c(O)c(OC)c2)c(OC)cc1NC(C)=O`, for which the TGI in the test on M14 melanoma is above 100 µM; in the test on CCRF-CEM leukemia it was 56.5 µM; with SK-MEL-2 melanoma it was above 100 µM; with NCI-H226 lung, above 100 µM; in the test with KM12 colon it was above 100 µM; in the test with NCI/ADR-RES ovarian, above 100 µM. The same compound came in with a TGI with OVCAR-4 ovarian above 100 µM.
For `O=C(O)CCCc1ccc2c(c1)CC1(C2)Cc2ccc(CCCC(=O)O)cc2C1`, the TGI in the test with UACC-62 melanoma, in the test with M14 melanoma, in the test on CCRF-CEM leukemia, in the test on SK-MEL-2 melanoma, in the test with NCI-H226 lung and in the test with KM12 colon was above 100 µM in each case. In addition, the TGI in the test on NCI/ADR-RES ovarian, in the test on OVCAR-4 ovarian and with NCI-H522 lung was above 100 µM each time.
Regarding `CC(C)c1nccn1Cc1ccc(Cl)cc1Cl`, the TGI with UACC-62 melanoma was above 100 µM; in the test on M14 melanoma, above 100 µM; in the test with SK-MEL-2 melanoma it was above 100 µM; with NCI-H226 lung, 93.5 µM; in the test on KM12 colon it was above 100 µM; with NCI/ADR-RES ovarian it was above 100 µM. Besides, the TGI in the test on OVCAR-4 ovarian was above 100 µM; in the test with NCI-H460 lung, above 100 µM; with NCI-H522 lung it was 97.9 µM.
On to `CC1(C)N=C(N)N=C(N)N1c1ccc(OCCCOc2ccccc2)c(Cl)c1`, for which the TGI in the test on UACC-62 melanoma is 18.3 µM; with CCRF-CEM leukemia, 29.7 µM; in the test on SK-MEL-2 melanoma it was 16.9 µM; in the test on NCI-H226 lung it was 15.4 µM; with KM12 colon, 12.3 µM; with NCI/ADR-RES ovarian, above 100 µM. Besides, the TGI turned out to be 14.2 µM in the test on OVCAR-4 ovarian, 12.4 µM in the test with NCI-H460 lung and 8.39 µM with NCI-H522 lung.
Take `O=S(=O)(O)c1ccc(Nc2ccnc3cc(Cl)ccc23)cc1`: the TGI in the test with UACC-62 melanoma, in the test with M14 melanoma, in the test with CCRF-CEM leukemia, in the test on SK-MEL-2 melanoma, with NCI-H226 lung and in the test with KM12 colon was above 100 µM throughout. Moreover, the TGI in the test with NCI/ADR-RES ovarian, with OVCAR-4 ovarian and with NCI-H522 lung was above 100 µM each time.
Take `CC(=O)[C@H]1CCC2[C@@H]3CC=C4C(O)C(OS(=O)(=O)O)CC[C@]4(C)C3CC[C@@]21C` (stereo partly drawn): the TGI with UACC-62 melanoma, in the test on CCRF-CEM leukemia, in the test with SK-MEL-2 melanoma, in the test with NCI-H226 lung, in the test with KM12 colon and with NCI/ADR-RES ovarian was above 100 µM throughout. For the same compound, the TGI with OVCAR-4 ovarian, in the test on NCI-H460 lung and in the test on NCI-H522 lung was above 100 µM in each case.
`COc1ccc(C(C)NNC(=O)c2ccncc2)cc1F` (stereo not drawn): the TGI in the test on UACC-62 melanoma, in the test on M14 melanoma, in the test with CCRF-CEM leukemia, with SK-MEL-2 melanoma, with NCI-H226 lung and in the test on KM12 colon was above 100 µM throughout. Further, the TGI in the test with NCI/ADR-RES ovarian, in the test with OVCAR-4 ovarian and in the test with NCI-H460 lung was above 100 µM throughout.
Regarding `N#Cc1c(C#N)c(-c2ccccc2)n(/N=C\c2ccccc2)c1N`, the TGI in the test on UACC-62 melanoma was 41.5 µM; with M14 melanoma, above 100 µM; in the test on CCRF-CEM leukemia, 51.2 µM; with SK-MEL-2 melanoma it was 87.3 µM; with NCI-H226 lung it was 68.7 µM; in the test on KM12 colon it was above 100 µM. The TGI is 52.5 µM in the test on NCI/ADR-RES ovarian, 59.9 µM with OVCAR-4 ovarian and 49.5 µM in the test with NCI-H522 lung.
As to `NC1CCCCC1N.O=S(=O)([O-])CCCN1CCN(CCO)CC1.O=S(=O)([O-])CCCN1CCN(CCO)CC1.[Pt+4]`, the GI50 with UACC-62 melanoma was 6.91 µM; with CCRF-CEM leukemia, 2.21 µM; in the test with SK-MEL-2 melanoma, 13.1 µM; in the test on NCI-H226 lung, 5.26 µM; with KM12 colon, 13.2 µM; with NCI/ADR-RES ovarian it was 1.47 µM. The values for the GI50 in the test on OVCAR-4 ovarian, in the test with NCI-H460 lung and with NCI-H522 lung were 1.63 µM, 1.15 µM and 2.73 µM, respectively. For the same compound, the TGI in the test with UACC-62 melanoma is 33.7 µM; with CCRF-CEM leukemia, above 50.5 µM; in the test with SK-MEL-2 melanoma it was 23.4 µM; in the test with NCI-H226 lung it was above 100 µM; in the test with KM12 colon, above 100 µM; in the test on NCI/ADR-RES ovarian, above 37 µM. Also, the TGI in the test on OVCAR-4 ovarian is 19.2 µM; in the test on NCI-H460 lung, above 46 µM; in the test on NCI-H522 lung, 17.9 µM.
As to `CCCCCCCCCCCCCCCCNc1ccn(C2CC(OP(=O)(O)OCC3OC(n4cc(CC)c(=O)[nH]c4=O)CC3O)C(CO)O2)c(=O)n1` (stereo not drawn), the TGI in the test on UACC-62 melanoma was 35.8 µM; with M14 melanoma it was 33.2 µM; with SK-MEL-2 melanoma it was 39.1 µM; in the test on NCI-H226 lung, above 100 µM; with KM12 colon, 29.6 µM; with NCI/ADR-RES ovarian it was 84.9 µM. The TGI in the test with OVCAR-4 ovarian and in the test with NCI-H522 lung was above 100 µM throughout.
Consider `COC(=O)C1[C@H](C(=O)OC)C1(Br)CBr` (stereo partly drawn), for which the TGI with UACC-62 melanoma, in the test on M14 melanoma, in the test with SK-MEL-2 melanoma, in the test with NCI-H226 lung, in the test with KM12 colon and with NCI/ADR-RES ovarian was above 100 µM throughout. The TGI with OVCAR-4 ovarian, with NCI-H460 lung and in the test on NCI-H522 lung was above 100 µM throughout.
In the case of `O=C(NCc1cccnc1)C(=O)NCc1cccnc1`, the TGI in the test with UACC-62 melanoma, with M14 melanoma, in the test with SK-MEL-2 melanoma, in the test with NCI-H226 lung, in the test with KM12 colon and in the test on NCI/ADR-RES ovarian was above 100 µM each time. The TGI in the test on OVCAR-4 ovarian, with NCI-H460 lung and in the test on NCI-H522 lung was above 100 µM throughout.
As for `CCCCCCc1cn([C@H]2C[C@H](O)[C@@H](CO)O2)c(=O)[nH]c1=O`, the TGI was above 31.6 µM in the test on UACC-62 melanoma; above 100 µM in the test with CCRF-CEM leukemia; above 100 µM in the test with SK-MEL-2 melanoma; above 100 µM with NCI-H226 lung; above 100 µM in the test with KM12 colon; above 100 µM in the test on NCI/ADR-RES ovarian. The TGI with OVCAR-4 ovarian, in the test on NCI-H460 lung and in the test with NCI-H522 lung was above 100 µM throughout.
